Measurements published in patent US20230141603A1, “BENZODIAZEPINE DERIVATIVES AS GABA A GAMMA1 PAM” (Hoffmann-La Roche Inc., priority 2021, published 2023).

Target: T1, h-GABAA α2β2γ1 (Homo sapiens, UniProt P47869+Q8N1C3)
T1 sequence (P47869 29-451): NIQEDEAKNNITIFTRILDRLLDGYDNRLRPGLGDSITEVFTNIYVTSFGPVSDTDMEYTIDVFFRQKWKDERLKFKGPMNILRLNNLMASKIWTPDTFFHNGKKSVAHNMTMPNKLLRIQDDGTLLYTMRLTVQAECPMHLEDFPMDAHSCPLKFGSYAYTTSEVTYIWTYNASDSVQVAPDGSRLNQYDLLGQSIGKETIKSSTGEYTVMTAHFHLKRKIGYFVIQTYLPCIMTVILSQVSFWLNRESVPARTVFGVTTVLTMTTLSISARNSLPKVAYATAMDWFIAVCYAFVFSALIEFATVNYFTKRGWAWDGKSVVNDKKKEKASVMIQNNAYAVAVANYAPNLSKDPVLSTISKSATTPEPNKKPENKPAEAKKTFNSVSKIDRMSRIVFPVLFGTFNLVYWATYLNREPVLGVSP
T1 sequence (P47870 25-512 partner limits assumed): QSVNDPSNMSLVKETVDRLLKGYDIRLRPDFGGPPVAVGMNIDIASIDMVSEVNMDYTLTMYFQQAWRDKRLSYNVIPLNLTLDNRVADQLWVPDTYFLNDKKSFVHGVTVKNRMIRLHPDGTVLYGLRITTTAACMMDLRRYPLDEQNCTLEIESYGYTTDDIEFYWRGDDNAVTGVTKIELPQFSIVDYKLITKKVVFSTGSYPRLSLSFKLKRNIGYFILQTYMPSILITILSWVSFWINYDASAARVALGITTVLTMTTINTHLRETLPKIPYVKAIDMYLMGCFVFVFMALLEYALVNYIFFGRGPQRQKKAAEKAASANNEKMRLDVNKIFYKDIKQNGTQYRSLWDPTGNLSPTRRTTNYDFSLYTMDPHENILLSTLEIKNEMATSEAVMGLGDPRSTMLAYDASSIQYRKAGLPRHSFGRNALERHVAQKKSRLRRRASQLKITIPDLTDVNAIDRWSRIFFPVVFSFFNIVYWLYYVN
T1 sequence (Q8N1C3 36-465): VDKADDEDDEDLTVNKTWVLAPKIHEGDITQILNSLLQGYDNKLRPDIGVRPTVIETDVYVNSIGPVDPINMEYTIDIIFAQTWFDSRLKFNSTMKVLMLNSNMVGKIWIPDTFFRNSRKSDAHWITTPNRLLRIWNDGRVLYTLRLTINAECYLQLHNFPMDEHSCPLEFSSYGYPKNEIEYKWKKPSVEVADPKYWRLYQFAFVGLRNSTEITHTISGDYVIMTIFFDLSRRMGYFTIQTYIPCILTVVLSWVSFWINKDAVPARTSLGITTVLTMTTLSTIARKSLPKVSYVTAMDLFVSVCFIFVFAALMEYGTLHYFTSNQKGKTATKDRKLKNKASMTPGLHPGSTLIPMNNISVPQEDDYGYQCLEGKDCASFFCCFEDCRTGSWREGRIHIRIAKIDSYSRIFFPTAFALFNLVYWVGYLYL
Assay: Two-electrode voltage clamp electrophysiology in Xenopus oocytes, modulation of GABA EC20 current
Format: cell-based
Set-up: host or cells: Xenopus laevis oocytes, RNA micro-injection
Conditions: for Efficacy (GABA)% / Fold increase h-GABA-A α2β2γ1 oocyte @ 30-fold Ki: Table 2; for Efficacy (GABA)%: % modulation of GABA EC20 = 100*(Fold increase−1), compound at approx. 30-fold Ki; for Fold increase h-GABA-A α2β2γ1 oocyte @ 30-fold Ki: compound at approx. 30-fold its Ki α2β2γ1, GABA EC20, Xenopus oocytes
Outline: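 Oocytes injected with receptor subunit mRNA were recorded 3–5 days later by two-electrode voltage clamp at −80 mV, room temperature, pH 7.4. Compound was applied during a second GABA EC20 pulse, with at least 3 oocytes per concentration. Efficacy is the ratio-trace extremum, expressed as % modulation of GABA EC20.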

Compound	Efficacy (GABA)% [%]	Fold increase h-GABA-A α2β2γ1 oocyte @ 30-fold Ki	potentiation of the GABA-induced current (α2β2γ1 GABAA receptor subtype expressing oocytes, reference PAMs) [%]
Fc1cccnc1C1=NCc2nnc(-c3ccncn3)n2-c2ccc(Br)c(Cl)c21 [Example 46, 8-bromo-7-chloro-6-(3-fluoro-2-pyridyl)-1-pyrimidin-4-yl-4H-[1,2,4]triazolo[4,3-a][1,4]benzodiazepine]	55	1.55	
Cc1ncc2n1-c1ccc(Cl)cc1C(c1ccccc1F)=NC2 [Midazolam, reference compound]			~60
Cl.NCc1nnc2n1-c1ccc(Br)c(Cl)c1C(c1c(F)cccc1F)=NC2 [Example 36, [8-bromo-7-chloro-6-(2,6-difluorophenyl)-4H-[1,2,4]triazolo[4,3-a][1,4]benzodiazepin-1-yl]methanamine hydrochloride]	33	1.33	
Fc1cccc(F)c1C1=NCc2nncn2-c2ccc(C(F)F)c(Cl)c21 [Example 23, 7-chloro-8-(difluoromethyl)-6-(2,6-difluorophenyl)-4H-[1,2,4]triazolo[4,3-a][1,4]benzodiazepine]	61	1.61	
COc1ccc2c(c1Cl)C(c1c(F)cccc1F)=NCc1nnc(-c3cccnn3)n1-2 [Example 57, 7-chloro-6-(2,6-difluorophenyl)-8-methoxy-1-pyridazin-3-yl-4H-[1,2,4]triazolo[4,3-a][1,4]benzodiazepine]	149	2.49	
O=c1[nH]nc2n1-c1ccc(Cl)c(Cl)c1C(c1c(F)cccc1F)=NC2 [Example 9, 7,8-dichloro-6-(2,6-difluorophenyl)-2,4-dihydro-[1,2,4]triazolo[4,3-a][1,4]benzodiazepin-1-one]	72	1.72	
Fc1cccnc1C1=NCc2nnc(-c3ccncn3)n2-c2ccc(Cl)c(Cl)c21 [Example 55, 7,8-dichloro-6-(3-fluoro-2-pyridyl)-1-pyrimidin-4-yl-4H-[1,2,4]triazolo[4,3-a][1,4]benzodiazepine]	59	1.59	
CO[C@H]1C[C@H](c2nnc3n2-c2ccc(Cl)c(Cl)c2C(c2c(F)cccc2F)=NC3)C1 [Example 91, trans-7,8-dichloro-6-(2,6-difluorophenyl)-1-(3-methoxycyclobutyl)-4H-[1,2,4]triazolo[4,3-a][1,4]benzodiazepine]	58	1.58	
Fc1cccc(F)c1C1=NCc2nncn2-c2ccc(Cl)c(Cl)c21 [Example 15, 7,8-dichloro-6-(2,6-difluorophenyl)-4H-[1,2,4]triazolo[4,3-a][1,4]benzodiazepine]	60	1.60	
Cc1nnc2n1-c1ccc(C(F)F)c(Cl)c1C(c1c(F)cccc1F)=NC2 [Example 25, 7-chloro-8-(difluoromethyl)-6-(2,6-difluorophenyl)-1-methyl-4H-[1,2,4]triazolo[4,3-a][1,4]benzodiazepine]	84	1.84	
Fc1cccc(F)c1C1=NCc2nnc(C3CCOCC3)n2-c2ccc(Cl)c(Cl)c21 [Example 11, 7,8-dichloro-6-(2,6-difluorophenyl)-1-tetrahydropyran-4-yl-4H-[1,2,4]triazolo[4,3-a][1,4]benzodiazepine]	60	1.60	
Fc1ccccc1C1=NCc2nnc(-c3cccnn3)n2-c2ccc(Cl)c(Cl)c21 [Example 10, 7,8-dichloro-6-(2-fluorophenyl)-1-pyridazin-3-yl-4H-[1,2,4]triazolo[4,3-a][1,4]benzodiazepine]	69	1.69	
COCCc1nnc2n1-c1ccc(Cl)c(Cl)c1C(c1c(F)cccc1F)=NC2 [Example 19, 7,8-dichloro-6-(2,6-difluorophenyl)-1-(2-methoxyethyl)-4H-[1,2,4]triazolo[4,3-a][1,4]benzodiazepine]	72	1.72	
Cc1nnc2n1-c1ccc(I)c(Cl)c1C(c1c(F)cccc1F)=NC2 [Example 41, 7-chloro-6-(2,6-difluorophenyl)-8-iodo-1-methyl-4H-[1,2,4]triazolo[4,3-a][1,4]benzodiazepine]	70	1.70	
Cc1ccc2c(c1Cl)C(c1c(F)cccc1F)=NCc1nnc(-c3ccncn3)n1-2 [Example 49, 7-chloro-6-(2,6-difluorophenyl)-8-methyl-1-pyrimidin-4-yl-4H-[1,2,4]triazolo[4,3-a][1,4]benzodiazepine]	57	1.57	
O=c1[nH]nc2n1-c1ccc(Cl)c(Cl)c1C(c1ncccc1F)=NC2 [Example 59, 7,8-dichloro-6-(3-fluoro-2-pyridyl)-2,4-dihydro-[1,2,4]triazolo[4,3-a][1,4]benzodiazepin-1-one]	115	2.15	
Fc1cccnc1C1=NCc2nncn2-c2ccc(Cl)c(Cl)c21 [Example 60, 7,8-dichloro-6-(3-fluoro-2-pyridyl)-4H-[1,2,4]triazolo[4,3-a][1,4]benzodiazepine]	132	2.32	
Cn1cc(-c2nnc3n2-c2ccc(Cl)c(Cl)c2C(c2c(F)cccc2F)=NC3)cn1 [Example 28, 7,8-dichloro-6-(2,6-difluorophenyl)-1-(1-methylpyrazol-4-yl)-4H-[1,2,4]triazolo[4,3-a][1,4]benzodiazepine]	59	1.59	
Fc1ccccc1C1=NCc2nnc(-c3cccnn3)n2-c2ccc(C(F)(F)F)c(Cl)c21 [Example 27, 7-chloro-6-(2-fluorophenyl)-1-pyridazin-3-yl-8-(trifluoromethyl)-4H-[1,2,4]triazolo[4,3-a][1,4]benzodiazepine]	71	1.71	
COc1ccc2c(c1Cl)C(c1c(F)cccc1F)=NCc1nnc(-c3cccnc3)n1-2 [Example 62, 7-chloro-6-(2,6-difluorophenyl)-8-methoxy-1-(3-pyridyl)-4H-[1,2,4]triazolo[4,3-a][1,4]benzodiazepine]	63	1.63	
Fc1cccnc1C1=NCc2nnc(-c3ccncn3)n2-c2ccc(C(F)(F)F)c(Cl)c21 [Example 69, 7-chloro-6-(3-fluoro-2-pyridyl)-1-pyrimidin-4-yl-8-(trifluoromethyl)-4H-[1,2,4]triazolo[4,3-a][1,4]benzodiazepine]	136	2.36	
Fc1cccc(F)c1C1=NCc2nnc(-c3cccnn3)n2-c2ccc(Br)c(Br)c21 [Example 42, 7,8-dibromo-6-(2,6-difluorophenyl)-1-pyridazin-3-yl-4H-[1,2,4]triazolo[4,3-a][1,4]benzodiazepine]	97	1.97	
Fc1cccc(F)c1C1=NCc2nnc(-c3cccnn3)n2-c2ccc(Cl)c(Cl)c21 [Example 14, 7,8-dichloro-6-(2,6-difluorophenyl)-1-pyridazin-3-yl-4H-[1,2,4]triazolo[4,3-a][1,4]benzodiazepine]	71	1.71	
Fc1cccc(F)c1C1=NCc2nnc(-c3cccnn3)n2-c2ccc(C(F)(F)F)c(Cl)c21 [Example 38, 7-chloro-6-(2,6-difluorophenyl)-1-pyridazin-3-yl-8-(trifluoromethyl)-4H-[1,2,4]triazolo[4,3-a][1,4]benzodiazepine]	114	2.14	
